This is an account of results in patent US20250064891A1, “HOST PROTEASES ESSENTIAL FOR PARAINFLUENZA SPREAD IN THE HUMAN LUNG: POTENTIAL TARGETS FOR ANTIVIRAL INTERVENTIONS” (The Trustees of Columbia University in the City of New York, priority 2022, published 2025).

Assay [1] relates to HPIV3. Kind of assay: HPIV3 spread in intranasally infected cotton rats, viral titer of nasal tissue by plaque assay. To be noted: intranasal nafamostat 3 mg/kg body weight daily, sacrificed 3 days after infection (FIG. 5).
Description: Viral titer (LogTCID50 per gram of nasal tissue) was determined by plaque assay. Values are means and SEM.
Assay [2] deals with serine proteases, such as TMPRSS2. Kind of assay: Inhibition of serine proteases (statement without method).
The test system of assay [3] is HPIV3. Kind of assay: HPIV3 titer (infectious viral particles) released by infected Calu-3 cells / HAE treated with protease inhibitor. The format is cell-based, human parainfluenza virus 3 (HPIV3). The conditions noted are these: for production of infectious viral particles / viral spread (HPIV3 titer): Calu-3 cell culture media and HAE apical washes 3 days after infection (FIG. 3); for viral titer: virions released by infected Calu-3 cells into the media (FIG. 8A). The text has this: Values are means and SEM from one biological replicate.

The test system of another assay is HPIV3 F. To be noted: for HPIV3 F cleavage: Calu-3 cells and HAE inoculated with HPIV-3 F E108 or F K108, treated after inoculation (FIG. 3); for HPIV3 F E108 (F0) cleavage: Western blot of Calu-3 cell media (FIG. 8B). For orientation: A western blot detects proteins with antibodies after separation by electrophoresis.

“Also recorded” adds a separate entry of the source.

Description for HPIV3 F: (A) Calu-3 cells and (B) HAE were inoculated with HPIV-3 F E108 (left) or HPIV-3 F K108 (right). After inoculation, cells were treated with the indicated concentrations of aprotinin or leupeptin. HPIV3 infected Calu-3 cell culture media and HAE apical wash resolved by reducing SDS-PAGE and immunoblotted with anti-HPIV3 F antibody. HPIV3 titer in cell culture media and HAE apical washes 3 days after infection. Values are means and SEM from 1-3 biological replicates.
Virions released by the infected cells into the media were titered. B) Western blotting for HPIV3 F in Calu-3 cell media.

As for `N=C(N)c1ccc2cc(OC(=O)c3ccc(N=C(N)N)cc3)ccc2c1` [Nafamostat], the “HPIV3 spread in vivo (viral titer, LogTCID50 per gram of nasal tissue)” value with HPIV3 [1] is recorded as “reduced HPIV3 spread in nasal tissue of cotton rats; also recorded: blocks HPIV3 spread in vivo”.
`CN(C)C(=O)COC(=O)Cc1ccc(OC(=O)c2ccc(NC(=N)N)cc2)cc1` [camostat]: the “inhibition of serine proteases, such as TMPRSS2” value (“inhibition of serine proteases” for short) in assay [2] is “effective inhibitors of serine proteases”.
With `CC(=O)N[C@@H](CC(C)C)C(=O)N[C@@H](CC(C)C)C(=O)N[C@H](C=O)CCCNC(=N)N` [leupeptin], in the assay with HPIV3 [3], the “production of infectious viral particles / viral spread (HPIV3 titer)” value is “inhibited viral spread; also recorded: reduces production of infectious viral particles” and the viral titer result is “reduced viral titer”. In assay [2], the “inhibition of serine proteases” value is “effective inhibitors of serine proteases”. For the same compound, in the assay on HPIV3 F, the “HPIV3 F cleavage” value is “block HPIV3 F cleavage” and the “HPIV3 F E108 (F0) cleavage” value is on record as “reduced HPIV3 F E108 cleavage”.
On to aprotinin, for which, in the assay with HPIV3 [3], the “production of infectious viral particles / viral spread (HPIV3 titer)” value was “inhibited viral spread; also recorded: reduces production of infectious viral particles” and the viral titer entry is listed as “reduced viral titer; also recorded: dose-dependent reduction in viral titer”. The “inhibition of serine proteases” value in assay [2] is recorded as “effective inhibitors of serine proteases”. In the assay with HPIV3 F, the “HPIV3 F cleavage” value was “block HPIV3 F cleavage” and the “HPIV3 F E108 (F0) cleavage” value is recorded as “reduced HPIV3 F E108 cleavage; also recorded: significant reduction in F0 cleavage”.
